Reference: patent US20110263425A1, “HERBICIDAL COMPOSITION AND METHOD OF USE THEREOF” (SYNGENTA CROP PROTECTION, INC., priority 2007, published 2011)

Key:
Set-up in all cases: key to Synergy (actual significantly higher than expected): *indicates synergy
Conditions in all cases: for Weed control, Actual: tank mixture
large crabgrass = test: Glasshouse trial, control of large crabgrass, mesotrione and atrazine applied pre-emergence; assay type: in vivo, Digitaria sanguinalis
Protocol: (§1) A glasshouse trial was carried out. Large crabgrass seeds were sown into standard glasshouse potting mix (1:1 v/v Promix:Vero sand soil) contained in 10 cm square plastic pots. Treatments were replicated three times. Mesotrione (in the form Callisto® 480SE) was applied post-emergence to large crabgrass (Digitaria sanguinalis) at either 12 g ai/ha or 24 g ai/ha with or without atrazine (in the form […]®. When used, atrazine was applied at a rate of 140 g ai/ha or 280 g ai/ha. The adjuvant system was X-77 at 0.1% v/v in deionised water. 200 litres of herbicide/adjuvant system was used per hectare. General weed control was evaluated at 7 and 14 days after treatment (DAT). It is noted that all herbicides were applied at reduced field rates because herbicide effects are magnified in a glasshouse environment. Rates were chosen to give a 50 to 70% level of control with herbicides applied alone as this allows for detection of any synergistic effect when tank mixtures are used. The results were evaluated using the Colby formula. The expected result for (A+B) is (A+B)-(A×B/100) where A and B are the 'observed' results for A and B on their own. […] A glasshouse trial was carried out as described in Example 1, but the herbicidal composition was applied pre-emergence, and higher rates of atrazine were used.

[1] = system: white clover (Trifolium repens); test: Glasshouse trial, control of white clover, mesotrione and atrazine applied post-emergence; assay type: in vivo
Protocol: [The source words this procedure for another organism and says it was used here with some conditions changed.] as §1, with “applied to white clover (Trifolium repens) instead of large crabgrass,” for “applied pre-emergence,”, “of mesotrione” for “of atrazine”

[2] = system: large crabgrass (Digitaria sanguinalis); test: Glasshouse trial, control of large crabgrass, mesotrione and atrazine applied post-emergence; assay type: in vivo
Protocol: A glasshouse trial was carried out. Large crabgrass seeds were sown into standard glasshouse potting mix (1:1 v/v Promix:Vero sand soil) contained in 10 cm square plastic pots. Treatments were replicated three times. Mesotrione (in the form Callisto® 480SE) was applied post-emergence to large crabgrass (Digitaria sanguinalis) at either 12 g ai/ha or 24 g ai/ha with or without atrazine (in the form […]®. When used, atrazine was applied at a rate of 140 g ai/ha or 280 g ai/ha. The adjuvant system was X-77 at 0.1% v/v in deionised water. 200 litres of herbicide/adjuvant system was used per hectare. General weed control was evaluated at 7 and 14 days after treatment (DAT). It is noted that all herbicides were applied at reduced field rates because herbicide effects are magnified in a glasshouse environment. Rates were chosen to give a 50 to 70% level of control with herbicides applied alone as this allows for detection of any synergistic effect when tank mixtures are used. The results were evaluated using the Colby formula. The expected result for (A+B) is (A+B)-(A×B/100) where A and B are the 'observed' results for A and B on their own.

[3] = atrazine 280 g ai/ha plus mesotrione at 12 g ai/ha
[4] = atrazine 280 g ai/ha plus mesotrione at 24 g ai/ha
[5] = atrazine 560 g ai/ha plus mesotrione at 12 g ai/ha
[6] = atrazine 560 g ai/ha plus mesotrione at 24 g ai/ha
[7] = atrazine 140 g ai/ha plus mesotrione at 50 g ai/ha
[8] = atrazine 140 g ai/ha plus mesotrione at 100 g ai/ha
[9] = atrazine 280 g ai/ha plus mesotrione at 50 g ai/ha
[10] = atrazine 280 g ai/ha plus mesotrione at 100 g ai/ha
[11] = atrazine 140 g ai/ha plus mesotrione at 12 g ai/ha
[12] = atrazine 140 g ai/ha plus mesotrione at 24 g ai/ha

CCNc1nc(Cl)nc(NC(C)C)n1 [Atrazine, 6-chloro-N-ethyl-N-isopropyl-1,3,5-triazine-2,4-diamine] was tested, and the “Synergy (actual significantly higher than expected)” value (large crabgrass; [3]) was “*”, the “Weed control, Expected (Colby formula)” value (large crabgrass; [3]) was 68% and the “Weed control, Actual” value (large crabgrass; [3]) was 75%. For the same compound, the “Weed control, Expected (Colby formula)” value (large crabgrass; [4]) was 97%, the “Weed control, Actual” value (large crabgrass; [4]) was 87% and the “Synergy (actual significantly higher than expected)” value (large crabgrass; [5]) was “*”. For the same compound, the “Weed control, Expected (Colby formula)” value (large crabgrass; [5]) was 60%, the “Weed control, Actual” value (large crabgrass; [5]) was 90% and the “Weed control, Expected (Colby formula)” value (large crabgrass; [6]) was 96%. For the same compound, the “Weed control, Actual” value (large crabgrass; [6]) was 98%, the “Weed control, Expected (Colby formula)” value [1, 7] was 58% and the “Weed control, Actual” value [1, 7] was 57%. The “Synergy (actual significantly higher than expected)” value [1, 8] was “*”, the “Weed control, Expected (Colby formula)” value [1, 8] was 68% and the “Weed control, Actual” value [1, 8] was 80%. The “Weed control, Expected (Colby formula)” value [1, 9] was 74%, the “Weed control, Actual” value [1, 9] was 73% and the “Synergy (actual significantly higher than expected)” value [1, 10] was “*”. For the same compound, the “Weed control, Expected (Colby formula)” value [1, 10] was 80%, the “Weed control, Actual” value [1, 10] was 88% and the “Synergy (actual significantly higher than expected)” value [2, 11] was “*”. The “Weed control, Expected (Colby formula)” value [2, 11] was 37%, the “Weed control, Actual” value [2, 11] was 48% and the “Synergy (actual significantly higher than expected)” value [2, 12] was “*”. For the same compound, the “Weed control, Expected (Colby formula)” value [2, 12] was 68%, the “Weed control, Actual” value [2, 12] was 78% and the “Synergy (actual significantly higher than expected)” value [2, 3] was “*”. The “Weed control, Expected (Colby formula)” value [2, 3] was 37%, the “Weed control, Actual” value [2, 3] was 62% and the “Synergy (actual significantly higher than expected)” value [2, 4] was “*”. The “Weed control, Expected (Colby formula)” value [2, 4] was 68% and the “Weed control, Actual” value [2, 4] was 77%.
